Laboratory results reported in patent US9308239B2, “Methods and compositions for treatment of retinoid-responsive conditions” (The Penn State Research Foundation, priority 2008, dated 2016).
Several values for one entry are separate records, joined by “and”; a condition that tells them apart may be missing. Equal values may be shown once.

Columns and labels:
NGAL [1] = assay: Western blot of NGAL protein in SEB-1 sebocytes after retinoid treatment; format: cell-based, human; details: 72 hours, 0.1 nM to 1 μM, maximum with micromolar concentrations
Description: For Western blotting, mouse monoclonal antibody to lipocalin 2 (NGAL) was obtained from Abeam, Inc., (Cambridge, Mass.). The 24p3R(NGAL receptor) affinity purified antibody, positive (HEK 293 cell lysate) and negative (T47D cell lysate) controls were kindly provided by Dr. Michael Green (University of Massachusetts Medical School). GAPDH (#2118), Cleaved caspase 3 (#9664), β-actin (#4967) and anti-rabbit horseradish peroxidase (HRP) linked secondary antibodies (#7074) were purchased from Cell Signaling Technology (Beverly, Mass.). Secondary Anti-mouse HRP antibody was purchased from Santa Cruz Biotechnology Inc. (Santa Cruz, Calif.).
SEB-1 sebocytes (passages 22-28) were in standard culture medium until 50-75% confluent. Treatments of 13-cis RA (0.1 nM, 1 nM, 10 nM, 0.1 μM, or 1 μM) or ethanol vehicle (0.01% or less) were applied for 48 or 72 hours. In parallel studies, identical concentrations of all-trans retinoic acid (ATRA) were applied for 72 hours. In all experiments, each plate was considered an independent sample and total protein was collected. Blots were incubated with appropriate primary and secondary antibodies followed by densitometry. […] Data was analyzed using a paired t-test and results were considered significant if p<0.05.
Protein expression was verified by western blot at 72 hours of retinoid treatment. […] Blots were analyzed by densitometry and normalized to β-actin. […]

NGAL [2] = assay: Immunoblot for NGAL in SEB-1 sebocytes after poly (I:C); format: cell-based, human; details: SEB-1, 20 μg/mL, 48 hrs
NGAL [3] = assay: NGAL immunohistochemistry on patient skin sections; format: in vivo, human; details: individual patients 1-6 and average, after one week isotretinoin therapy
Method: All sections were counterstained with hematoxylin. […] NC-negative control, consists of a normal human skin incubated with normal mouse IgG1 antibody.

sebaceous glands [4] = assay: Histology: sebaceous gland area in patient skin biopsies (H&E, image analysis); format: in vivo, human; details: one week samples, mean±SEM; baseline 0.23±0.09; not significant (p=0.16)
sebaceous glands [5] = assay: TUNEL-peroxidase assay on patient skin biopsies; format: in vivo, human
LCN2 mRNA = assay: QPCR of LCN2 mRNA in SEB-1 sebocytes after retinoid treatment; format: cell-based, human; details: 48 hours
Method: Applied Biosystems' Assays-on-Demand Taqman Universal PCR Master Mix, primer/probe sets, and ABI's 7900HT Fast Real-Time PCR System with 384-well plate block module were used according to manufacturer's instructions (Applied Biosystems, Foster City, Calif.). Integrity of isolated RNA was verified by agarose gel electrophoresis. cDNA was generated from 1 μg of total RNA, primed with oligo-dT, using the Superscript First-Strand Synthesis System for RT-PCR (Invitrogen, Carlsbad, Calif.). Diluted cDNA from the one week samples were run for the reference gene TATA binding protein (TBP) and genes of interest: lipocalin 2, (LCN2) RARRES1, S100A7, SERPINA3 and PLA2G7. For gene array verification, 8 independent samples of SEB-1 sebocytes treated with 0.1 μM 13-cis RA or vehicle alone for 72 hours were analyzed. Genes of interest included: LCN2, RARRES1, insulin-like growth factor binding protein 3 (IGFBP-3), GATA3, ZBTB16 and potential LCN2 cell surface receptor (SLC22A17). Expression of TBP, GAPDH and LCN2 was analyzed in 6 independent SEB-1 samples for the siRNA knockdown experiments. SEB-1 sebocytes treated with increasing concentrations of ATRA (n=5) were analyzed for the reference gene, TBP, and LCN2. […] Data was analyzed using the Relative Expression Software Tool (REST-XL version 1) software program (64) with efficiency correction and a p-value <0.05 was considered significant. […]

SEB-1 sebocytes = assay: TUNEL assay in SEB-1 sebocytes; format: cell-based, human; details: 24 hours, 1 ng/mL
P. acnes bacteria = assay: P. acnes percent survival after rhNGAL treatment; details: 1-25 μg/mL, 4 hours, percent survival relative to vehicle

CC1=C(/C=C/C(C)=C/C=C/C(C)=C/C(=O)O)C(C)(C)CCC1 [ATRA, all-trans retinoic acid]
NGAL protein expression increase compared to control (maximum) (NGAL [1]): 7 fold

Polyinosinic:polycytidylic acid [Poly (I:C)]
NGAL expression in total cell lysate (NGAL [2]): increases

CC1=C(/C=C/C(C)=C/C=C/C(C)=C\C(=O)O)C(C)(C)CCC1 [isotretinoin, 13-cis retinoic acid]
1-week (% of sebaceous gland positive for NGAL) (NGAL [3]): 27.1% and 1.1% and 12.1% and 1.0% and 36.7% and 11.3%
mean area of sebaceous glands (sebaceous glands [4]): 0.12±0.02 mm^2
increase in the percentage of TUNEL positive cells vs baseline (sebaceous glands [5]; one week of therapy compared to baseline): 4 fold
percentage of TUNEL positive cells within the sebaceous gland (sebaceous glands [5]; one week of therapy, mean±SD, n=6 patients, baseline 13.9±6%, p=0.005): 45.9±11.9%
concentrations that significantly increased LCN2 mRNA levels (LCN2 mRNA): ≥ 1 nM
increase of LCN2 mRNA levels compared to control (LCN2 mRNA; micromolar concentrations): approximately 6 fold

B1: rhNGAL: purified recombinant human NGAL protein (amino acids 21-198, R&D Systems); in Example 14 rhNGAL produced in E. coli (protein)
chain: QDSTSDLIPAPPLSKVPLQQNFQDNQFQGKWYVVGLAGNAILREDKDPQKMYATIYELKEDKSYNVTSVLFRKKKCDYWIRTFVPGCQPGEFTLGNIKSYPGLTSYLVRVVSTNYNQHAMVFFKKVSQNREYFKITLYGRTKELTSELKENFIRFSKSLGLPENHIVFPVPIDQCIDG
modifications: human
percentage of TUNEL positive cells (maximum) (SEB-1 sebocytes): approximately 35%
effect on P. acnes bacteria (FIG. 11) (P. acnes bacteria): inhibitory effects
